Results on eight compounds are retold here after patent US9376462B2, “Process for preparing delta-7,9(11) steroids from Ganoderma lucidum and analogs thereof” (Indiana University Research and Technology Corporation, priority 2010, dated 2016).

Data set [1] deals with MCF-7 cells. Nature of the data set: Cell proliferation assay (tetrazolium salt/MTT method), MCF-7. It counts as cell-based. The following applies: Homo sapiens, read-out: IC50, inhibition of cell proliferation. The protocol:
(§1) Cell culture: The human breast cancer cell lines MCF-7 and MDA-MB-231, obtained from ATCC (Manassas, Va.), were cultivated in Dulbecco's modified Eagle's medium (DMEM) containing penicillin (50 U/ml), streptomycin (50 U/ml), and 10% fetal bovine serum (FBS). Media and supplements were from Invitrogen (Grand Island, N.Y.).
(§2) Cell proliferation assay: Ganodermanontriol, 13, 14, and 15 (isomers) were dissolved in DMSO (Sigma; St. Louis, Mo.) at a concentration of 10 mM and stored at 4° C. Dulbecco's phosphate buffered saline (DPBS) was purchased from Cambrex Bio Science Walkersville, Inc. (Walkersville, Md.). Cell proliferation was determined by the tetrazolium salt method (MTT method), according to the manufacturer's instructions (Promega, Madison, Wis.). Briefly, MCF-7 and MDA-MB-231 cells (2.5×10^3/well) were cultured in a 96-well plate and treated with ganodermanontriol, 13, 14 and 15 (0-100 μg/ml) for 24, 48, and 72 hrs. At the end of the incubation period, the cells were harvested and absorption was determined with an ELISA plate reader at 570 nm. Data points represent mean±SD in triplicate determinations repeated at least twice. IC50 values were determined by using SigmaPlot (Systat Software Inc, San Jose, Calif.).
In general terms: Tetrazolium assays rely on reduction of a dye to a coloured formazan, in cell work by metabolically active cells.

Data set [2] has as its system MDA-MB-231 cells. The experiment in a line: Cell proliferation assay (tetrazolium salt/MTT method), MDA-MB-231. It counts as cell-based. The conditions noted are these: Homo sapiens, read-out: IC50, inhibition of cell proliferation. How it is done: as §1, §2
Data set [3] has as its system classical pathway (CP) of the complement system. The conditions noted are these: read-out: IC(50), anticomplement activity; cited from earlier work.
Data set [4] concerns HIV-1. The conditions noted are these: MT-4 cells; cited from earlier work.
For data set [5], the target named is recombinant HIV-1 protease (Human immunodeficiency virus type 1 group M subtype B, UniProt P04585). The following applies: cited from earlier work.
In data set [6] the test system is human colon cancer cells. The following applies: in vitro; cited from earlier work.
The subject of data set [7] is xenograft model of colon cancer. The following applies: cited from earlier work.
For data set [8], the system named is mammalian cells. The conditions noted are these: potentially through inhibition of lanosterol 14α demethylase; cited from earlier work.
The mark [9] stands for this setting: MDA-MB-231 cells, 72 h, 0-100 μM.

Where two headings read alike, the source gives them in different places.

Turning to `C[C@H](CC[C@H](O)[C@](C)(O)CO)[C@H]1CC[C@@]2(C)C3=CCC4C(C)(C)C(=O)CC[C@]4(C)C3=CC[C@]12C` (stereo partly drawn) [compound 1, (10S,13R,14R,17R)-4,4,10,13,14-Pentamethyl-17-((2R,5S,6R)-5,6,7-trihydroxy-6-methylheptan-2-yl)-4,5,6,10,12,13,14,15,16,17-decahydro-1H-cyclopenta[a]phenanthren-3(2H)-one], the IC50 is 5.8 µM in [1] (MCF7, 72 h); 9.7 µM in data set [2] (MDA-MB-231, 72 h); 17.2 µM in data set [3]. For the same compound, the “inhibition of HIV-1-induced cytopathic effect” value in data set [4] is reported as “inhibited”. For the same compound, the “inhibitory activity against recombinant HIV-1 protease” value (“inhibitory activity” below) in [5] is given as “significant inhibitory activity”. Also, the “proliferation of human colon cancer cells” value in data set [6] is given as “suppressed proliferation”. Also, the tumor growth result in [7] is recorded as “inhibited tumor growth”.
For `C[C@H](CC[C@@H](O)[C@@](C)(O)CO)[C@H]1CC[C@@]2(C)C3=CCC4C(C)(C)C(=O)CC[C@]4(C)C3=CC[C@]12C` (stereo partly drawn) [compound 13, (10S,13R,14R,17R)-4,4,10,13,14-Pentamethyl-17-((2R,5R,6S)-5,6,7-trihydroxy-6-methylheptan-2-yl)-4,5,6,10,12,13,14,15,16,17-decahydro-1H-cyclopenta[a]phenanthren-3(2H)-one], the IC50 was 24.1 µM in data set [1] (MCF7 cells, 72 h, 0-100 μM) and 33.8 µM in data set [2] (setting [9]).
Regarding `C[C@H](CC[C@H](O)[C@@](C)(O)CO)[C@H]1CC[C@@]2(C)C3=CCC4C(C)(C)C(=O)CC[C@]4(C)C3=CC[C@]12C` (stereo partly drawn) [compound 14, (10S,13R,14R,17R)-4,4,10,13,14-Pentamethyl-17-((2R,5S,6S)-5,6,7-trihydroxy-6-methylheptan-2-yl)-4,5,6,10,12,13,14,15,16,17-decahydro-1H-cyclopenta[a]phenanthren-3(2H)-one], the IC50 in data set [1] (MCF7 cells, 72 h, 0-100 μM) turned out to be 16.3 µM; in data set [2] (setting [9]) it was 36.7 µM.
The matching figures for `C[C@H](CC[C@@H](O)[C@](C)(O)CO)[C@H]1CC[C@@]2(C)C3=CCC4C(C)(C)C(=O)CC[C@]4(C)C3=CC[C@]12C` (stereo partly drawn) [compound 15, (10S,13R,14R,17R)-4,4,10,13,14-Pentamethyl-17-((2R,5R,6R)-5,6,7-trihydroxy-6-methylheptan-2-yl)-4,5,6,10,12,13,14,15,16,17-decahydro-1H-cyclopenta[a]phenanthren-3(2H)-one]: 24.1 µM and 11.3 µM.
With `C/C(=C\CC[C@@H](C)[C@H]1CC(=O)[C@@]2(C)C3=C(C(=O)C[C@]12C)[C@@]1(C)CC[C@H](O)C(C)(C)[C@@H]1C[C@@H]3O)C(=O)O` [ganoderic acid β], the “inhibitory activity” value in data set [5] is reported as “significant inhibitory activity”.
`C[C@H](CCC=C(CO)CO)[C@H]1CC[C@@]2(C)C3=CC[C@H]4C(C)(C)C(=O)CC[C@]4(C)C3=CC[C@]12C` [ganoderiol F, reference compound]: in data set [4], the “inhibition of HIV-1-induced cytopathic effect” value is listed as “inhibited”.
Regarding `C/C(=C\CC[C@@H](C)[C@H]1CC[C@@]2(C)C3=CCC4C(C)(C)C(=O)CC[C@]4(C)C3=CC[C@]12C)CO` (stereo partly drawn) [ganoderol A, (10S,13R,14R,17R)-17-((R,E)-7-Hydroxy-6-methylhept-5-en-2-yl)-4,4,10,13,14-pentamethyl-4,5,6,10,12,13,14,15,16,17-decahydro-1H-cyclopenta[a]phenanthren-3(2H)-one], the melting point was 75 to 80 °C. Besides, the hypocholestemic activity entry in data set [8] is “significant hypocholestemic activity”.
With ganodermanodiol, the “inhibitory activity” value in data set [5] is “significant inhibitory activity”.

By melting point is commonly meant the temperature of the solid-liquid transition.
